# Measured values as given in patent US5908787A, “Total protein detection method” (Bayer Corporation, priority 1997, dated 1999).
# System: not listed separately
# Assay: pKa of secondary dye
# Type: physicochemical
# Details: second pKa of the dye
# Excerpt: Structure A represents the general structure of phenolsulfonephthalein derivatives in protic solvents such as water or an alcohol while structure B represents the form that predominates in the dry state or in aprotic solvents such as ethers and acetonitrile. The phenolsulfonephthalein error indicators are pH indicators which include an ionizable proton having a pKa value such that the proton is displaced by the presence of protein. The pKa value of a phenolsulfonephthalein indicator is the pH at which one half of the number of indicator molecules include the deprotonated C ring phenolic hydroxyl group. In the case of the phenolsulfonephthalein protein error indicators illustrated above, two deprotonation events occur in order to cause an observable color change. The first deprotonation removes the proton from the aryl sulfonic acid on the A ring to yield the ion illustrated below as formula C: [drawing 2]
# The pKa of this proton is less than one, resulting in the ionization of this moiety at all useful pH values. This ionizable group is also responsible for the aqueous solubility of these compounds. The second deprotonation involves the release of a proton from the C ring phenolic hydroxyl to yield the dianion. With this type of protein error indicator, the second deprotonization causes the observable color change which is indicative of the presence of protein in the sample being tested. The phenolsulfonephthalein protein error indicator is typically applied to an absorbent matrix material along with a buffer to provide an environment of constant pH, so that one can rely on the color change being the result of the presence of protein rather than the result of a pH change upon contact with the test fluid.
row,Compound,pKa
1,"O=S1(=O)OC(c2cc(I)c(O)c(I)c2)(c2cc(I)c(O)c(I)c2)c2ccccc21 [Secondary dye 4, Tetraiodophenolsulfonephthalein]",4.0
2,"O=S1(=O)OC(c2cc(Br)c(O)c(Br)c2)(c2cc(Br)c(O)c(Br)c2)c2ccccc21 [Secondary dye 1, Bromophenol blue]",3.7
3,"O=[N+]([O-])c1cc(C2(c3cc(Br)c(O)c(I)c3)OS(=O)(=O)c3c(Br)c(Br)c(Br)c(Br)c32)cc(Br)c1O (centres unmarked) [Secondary dye 7, 5'-Nitro-5''-Iodo-3',3""3,4,5,6-hexabromophenolsulfonephthalein]",1.6
4,"O=S1(=O)OC(c2cc(Br)c(O)c(Br)c2)(c2cc(Br)c(O)c(Br)c2)c2c(Br)c(Br)c(Br)c(Br)c21 [Secondary dye 2, Tetrabromophenol blue]",3.5
5,"O=S1(=O)OC(c2cc(Cl)c(O)c(Br)c2)(c2cc(Cl)c(O)c(Br)c2)c2ccccc21 [Secondary dye 3, Bromochlorophenol blue]",3.8
6,"O=[N+]([O-])c1cc(C2(c3cc(I)c(O)c([N+](=O)[O-])c3)OS(=O)(=O)c3c(Br)c(Br)c(Br)c(Br)c32)cc(I)c1O [Secondary dye 5, 5',5""-Dinitro-3',3""-Diiodo-3,4,5,6-Tetrabromophenolsulfonephthalein]",1.5
7,"O=[N+]([O-])c1cc(C2(c3cc(Br)c(O)c([N+](=O)[O-])c3)OS(=O)(=O)c3c(Br)c(Br)c(Br)c(Br)c32)cc(Br)c1O [Secondary dye 6, 5',5""-Dinitro-3',3"",3,4,5,6-hexabromophenolsulfonephthalein]",1.6

# System: protein
# Assay: Ka, affinity of secondary dye for protein
# Type: binding
# Details: not given
# Excerpt: The phenolsulfonephthalein protein error indicators are used in conjunction with the molybdate or tungstate salt assay for protein in which a fluid test sample is combined with a molybdate or tungstate salt and a dye which forms a complex therewith whose absorption band is shifted in the presence of protein. As is disclosed in U.S. Pat. No. 5,399,498; tungstate reacts with the indicator to form a complex whose color shifts in the presence of protein in a manner similar to that of molybdenum. This patent also discloses the use of phytic acid or derivatives thereof to reduce background interference in this sort of assay. […] This method is a total protein assay since the response is not dependent on the type of protein present in the test sample. […] Since total protein assays are useful in the detection of certain disease states, and the higher the total protein spillover into urine the more serious the potential problem, a total protein assay which provides a detectable response at high protein concentrations is desirable.
row,Compound,affinity for protein (in words)
1,"O=[N+]([O-])c1cc(C2(c3cc(I)c(O)c([N+](=O)[O-])c3)OS(=O)(=O)c3c(Br)c(Br)c(Br)c(Br)c32)cc(I)c1O [Secondary dye 5, 5',5""-Dinitro-3',3""-Diiodo-3,4,5,6-Tetrabromophenolsulfonephthalein]",too high an affinity for proteins
